For data set [1], the system named is DSS model of Ulcerative Colitis using C57Bl/6 mice. Description: DSS model of Ulcerative Colitis in mice. The data set is classed as in vivo. Particulars: 1 mg/kg daily oral, vs vehicle (and anti-TNFα antibody); for colitis clinical score: suspension in CMC-Na 2%, Day 9; for colon length: Day 10, experiment termination. How it is done:
Ulcerative Colitis was modelled in C57Bl/6 mice by administering Dextran Sulphate Sodium (DSS) in drinking water (1.5% w/v) for 5 days. Mice were monitored daily for weight loss and clinical symptoms of disease for 10 days starting at the beginning of DSS administration.
The length and weight of the colon were also assessed.
Compared to naïve animals, animals given DSS water developed clinical signs of disease including weight loss and diarrhoea as well as gross pathological signs of disease on experiment termination. […] Shortened length and increased weight:length ratio indicates edema associated with ulcerative colitis.

In data set [2] the test system is CD4+ adoptive transfer induced inflammatory bowel disease in mice. In words: CD4+ adoptive transfer induced inflammatory bowel disease in mice. The class given is in vivo, Fox Chase C.B-17 SCID mice. Particulars: 1 mg/kg daily, day 21 to 49; for inhibition of inflammation/edema associated with inflammatory bowel disease (anti-inflammatory effect in colon): Potassium Salt. How it is done:
The efficacy of Example compound 2 in inhibiting inflammation/edema associated with inflammatory bowel disease was evaluated in a CD4+ adoptive transfer induced inflammatory bowel disease in mice.
Species/Strain or Breed: Fox Chase C.B-17 SCID & Balb/C
On study day −1, SCID mice were weighed and evenly distributed into treatment groups based on body weight.
On study day 0, Balb/C mice were terminated, and spleens obtained for CD4^+CD45RB^high cell isolation (Using SCID IBD Cell Separation Protocol). After cells were sorted and obtained, each animal in the treatment groups received an IP injection of CD4^+CD45RB^high cells at a minimum 4×10^5 cells (200 μl/mouse injections). A naïve group of mice was followed through the experiment without receiving the injection of cells. The naïve group comprised 5 animals.
On study day 21, treatment with Example compound 2 (1 mg/kg, daily day 21 to 49) was initiated. The compound was formulated as a 0.1 mg/mL suspension with sodium carboxymethyl cellulose (1%, w/v). Mice received either Example compound 2 or vehicle. Each of those groups comprised 10 animals.
On study day 49, animals were anesthetized with Isoflurane and bled to exsanguination followed by cervical dislocation. The entire colon was removed, measured, and weighed. The colon was analysed for its level of interferon-γ and IL-22. The inflammation in the colons was also scored by visual and histopathological assessments.

Data set [3] concerns aryl hydrocarbon receptor (AhR). In words: Activation of AhR in colon of mice after oral dosing (qPCR of CYP1A1). The settings on record: for Colon CYP1A1 (fold change over untreated) Mean / Liver CYP1A1 (fold change over untreated) Mean: day 14; for Colon CYP1A1 (fold change over untreated) Mean: qPCR normalized to GAPDH & ACTB. The class given is in vivo, C57Bl/6 mice. How it is done:
The potential of Example compound 2 to activate the aryl hydrocarbon receptor (AhR) in the colon following oral administration was evaluated in a wild-type (WT) mice.
Species/Strain or Breed: C57Bl/6
On study day 0, animals were weighed and evenly distributed into treatment groups based on body weight. On study day 14, animals were asphyxiated via CO2 inhalation followed by cervical dislocation. The entire colon was removed, collected and prepared for qPCR analysis of CYP1A1 (Normalized to GAPDH & ACTB).
The Example compound 2 was formulated as a 0.1 mg/ml, 0.01 mg/ml or 0.001 mg/ml suspension with sodium carboxymethyl cellulose (1%, w/v).

A short description of data set [4]: In vivo pharmacokinetic study in rats. Also on record: species or system Sprague Dawley rats. Particulars: 1 mg/kg oral, rat plasma. On the procedure: An in vivo pharmacokinetic study in rats was performed to determine if Example compound 2 can be absorbed and detected systemically after oral dosing. 4 male Sprague Dawley rats, approximately 225 g-250 g at dosing were dosed with 1 mg/kg of Example compound 2 formulated as a 0.1 mg/mL suspension with sodium carboxymethyl cellulose (1%, w/v). Blood samples were taken at 15 min, 30 min, 1 h, 2 h, 4 h, 6 h, 8 h and 24 h post dose At each blood sampling approximately 250 μL blood was sampled in K3EDTA vials and approximately 100 μL plasma was also prepared. The plasma samples were prepared by mixing 50 μL plasma with 250 μL of internal standard solution (20 ng/mL of phenacetin in ACN with 1% formic acid), mixed and centrifuged (20 min, 4000 rpm). Plasma samples were transferred to Waters Ostro 96-well plate and drawn through the plate by applying 6-8 psi positive pressure for 10 min. 100 μL of supernatant was further diluted with 50 μL UP water and sample was submitted to analysis. The standard and QC samples were prepared into blank rat colon homogenate and blank rat plasma. Standards were spiked into concentrations 0.1-10000 ng/mL of the analytes, QC samples into 3, 30, 300 and 3000 ng/mL, and were otherwise treated as samples.

In data set [5] the test system is Crohn's Disease. Particulars: reported in D'Haens et al. 2015 and WO 2011/014255; cited from earlier work.

SMILES strings stand for the structures. “Also recorded” adds a separate entry of the source.

In the case of `Cn1c(=O)c(C(=O)Nc2ccccc2)c(O)c2c(Cl)cccc21` [Example compound 1, 5-chloro-4-hydroxy-1-methyl-2-oxo-N-phenyl-quinoline-3-carboxamide], in data set [1], the colitis clinical score result is given as “significant reduction in colitis clinical score; also recorded: lower colitis score”; the colon length result was “significant increase in colon length; also recorded: greater colon length”; the “body weight change (% change from day 1 of experiment), weight loss” value was “reduced weight loss”. In addition, in data set [1] (listed as DELAQ), the colitis clinical score result was “protective effect against the development of the clinical symptoms of Ulcerative Colitis” and the colon length result is listed as “effective at reducing colon shortening”.
On to `Cn1c(=O)c(C(=O)Nc2ccccc2)c(O)c2c(Cl)cccc21.[K]` [Example compound 2, 5-chloro-4-hydroxy-1-methyl-2-oxo-N-phenyl-quinoline-3-carboxamide Potassium Salt], for which the entries for the “inhibition of inflammation/edema associated with inflammatory bowel disease (anti-inflammatory effect in colon)” value in data set [2] and in data set [2] (listed as potassium salt of DELAQ) were “local anti-inflammatory effect in the colon” and “effective in inhibiting inflammation/edema”, respectively. Moreover, the “colon level of inflammatory markers (interferon-γ and IL-22)” value in data set [2] (colon at day 49, vs vehicle) is on record as “lower levels of inflammatory markers”. Moreover, the “inflammation in the colons scored by visual and histopathological assessments” value in data set [2] (day 49, vs vehicle) is listed as “fewer signs of inflammation”. Moreover, the “body weight (weight loss)” value in data set [2] (vs vehicle) was “less weight loss”. Moreover, the “Colon CYP1A1 (fold change over untreated) Mean” value is on record as 1.03 fold change over untreated in data set [3] (0.01 mg/kg PO QD D0-13), 7.42 fold change over untreated in data set [3] (0.1 mg/kg PO QD D0-13) and 8.34 fold change over untreated in data set [3] (1.0 mg/kg PO QD D0-13). Moreover, the entries for the “Liver CYP1A1 (fold change over untreated) Mean” value in data set [3] (0.01 mg/kg PO QD D0-13), in data set [3] (0.1 mg/kg PO QD D0-13) and in data set [3] (1.0 mg/kg PO QD D0-13) were 1.08 fold change over untreated, 2.81 fold change over untreated and 3.44 fold change over untreated, respectively. The “CYP1A1 mRNA expression compared to untreated animals (AhR activation)” value in data set [3] (1.0 and 0.1 mg/kg oral, WT mice) is listed as “significant increase in CYP1A1 mRNA expression”. In addition, the “AhR activating effect, colon versus liver CYP1A1 increase” value in data set [3] (oral, increase in liver CYP1A1 lower than in colon) was “local AhR activating effect”. The clearance from plasma entry in data set [4] is listed as “rapidly cleared”. In addition, the “level in the plasma after oral dosing” value in data set [4] (15 min to 24 h post dose) is “detected in the plasma”.
As to `CCN(C(=O)c1c(O)c2c(Cl)cccc2n(C)c1=O)c1ccccc1` [laquinimod], in data set [5], the “benefit in treatment of Crohn's Disease” value is given as “beneficial for the treatment of Crohn's Disease”.

The values above are taken from patent publication US20230167064A1, “TREATMENTS OF INFLAMMATORY BOWEL DISEASE” (Aqilion AB, priority 2020, published 2023).
